Data published in patent US12612407B2, “Imidazo[2,1-f][1,2,4]triazin-4-amine derivatives as TLR7 agonist” (BEIGENE, LTD., priority 2020, dated 2026).
pEC50: −log10 of the molar value.

Molecular target: T1, human TLR7 (Homo sapiens, UniProt Q9NYK1)
T1 construct: host or cells: HEK293 (HEK-Blue hTLR7)
T1 sequence (Q9NYK1 27-1049): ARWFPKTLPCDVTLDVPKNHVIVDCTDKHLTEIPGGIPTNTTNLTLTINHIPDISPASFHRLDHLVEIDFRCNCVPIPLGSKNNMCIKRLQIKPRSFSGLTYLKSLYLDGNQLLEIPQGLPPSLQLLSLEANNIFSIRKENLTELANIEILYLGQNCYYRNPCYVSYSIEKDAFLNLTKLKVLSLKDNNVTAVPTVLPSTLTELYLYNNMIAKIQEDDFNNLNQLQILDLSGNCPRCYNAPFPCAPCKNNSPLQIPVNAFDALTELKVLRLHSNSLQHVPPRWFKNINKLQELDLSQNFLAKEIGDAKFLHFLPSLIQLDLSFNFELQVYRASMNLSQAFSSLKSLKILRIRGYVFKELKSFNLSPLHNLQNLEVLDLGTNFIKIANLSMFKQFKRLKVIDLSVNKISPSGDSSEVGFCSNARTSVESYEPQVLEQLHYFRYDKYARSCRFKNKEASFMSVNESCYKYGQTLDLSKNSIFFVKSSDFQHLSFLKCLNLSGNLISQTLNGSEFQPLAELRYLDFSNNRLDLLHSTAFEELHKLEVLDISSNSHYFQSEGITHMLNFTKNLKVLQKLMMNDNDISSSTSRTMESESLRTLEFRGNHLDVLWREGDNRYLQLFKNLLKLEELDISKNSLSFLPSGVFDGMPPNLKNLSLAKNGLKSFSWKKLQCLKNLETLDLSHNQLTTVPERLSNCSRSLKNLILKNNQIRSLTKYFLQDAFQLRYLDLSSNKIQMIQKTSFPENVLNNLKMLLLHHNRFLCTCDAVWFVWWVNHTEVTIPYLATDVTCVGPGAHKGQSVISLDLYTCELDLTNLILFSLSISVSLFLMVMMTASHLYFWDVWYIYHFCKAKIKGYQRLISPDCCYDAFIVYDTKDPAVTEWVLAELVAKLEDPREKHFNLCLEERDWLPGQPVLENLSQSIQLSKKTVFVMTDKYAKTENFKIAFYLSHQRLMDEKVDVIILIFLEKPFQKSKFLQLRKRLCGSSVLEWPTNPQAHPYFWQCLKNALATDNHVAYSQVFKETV
Test: HEK293-Blue hTLR7 Reporter Assay (QUANTI-BLUE, SEAP readout)
Assay type: cell-based
Settings: HEK-Blue-hTLR7 cells, 24 hrs treatment, Table 1, B1-B232
Procedure: HEK293-Blue hTLR7 Reporter Assay: HEK-Blue-hTLR7 cell line (Invivogen, Cat. No. hkb-htlr7) was designed so that the expression of the secreted embryonic alkaline phosphatase (SEAP) was induced by activating NF-κ and AP-1 via stimulating human TLR7 with TLR7 agonists. HEK-Blue-hTLR7 cells were seeded at a density of 4×10^4 cells/well in a volume of 180 μL in a 96-well plate in DMEM (Cat. No. 11965-092) supplemented with 10% (v/v) heat-inactivated fetal bovine serum (FBS) (Gibco, 10099-1441), 100 U/ml penicillin and 100 μg/ml streptomycin (Gibco, 15140122) containing 50 U/mL penicillin, […] and 10% (v/v) heat-inactivated fetal bovine serum. The cells were settled for 5 hrs, then treated with increasing amounts of tested compounds at 37° C. for 24 hrs. Then 20 μL of the supernatant from each well was incubated with 180 μL Quanti-blue substrate solution at 37° C. for 10-30 mins before the activity of the SEAP was determined at 620-655 nm using a spectrophotometer. The EC50 value for each compound was calculated with GraphPad Prism software using the sigmoidal dose-response function.

| SMILES | pEC50 |
| --- | --- |
| CCCCOc1nc(N)c2ncc(Cc3ccc(C4CCNCC4)nc3)n2n1 [Compound B19, 2-butoxy-7-((6-(piperidin-4-yl)pyridin-3-yl)methyl)imidazo[2,1-f][1,2,4]triazin-4-amine] | 6.64 |
| CCCCOc1nc(N)c2ncc(Cc3ccc(C4CCCNC4)cc3)n2n1 (stereo not shown) [Compound B20, 2-butoxy-7-(4-(piperidin-3-yl)benzyl)imidazo[2,1-f][1,2,4]triazin-4-amine] | 5.10 |
| Cc1cc(Cc2cnc3c(N)nc(OCCC(C)C)nn23)cnc1N1CCNCC1 [Compound B22, 2-(isopentyloxy)-7-((5-methyl-6-(piperazin-1-yl)pyridin-3-yl)methyl)imidazo[2,1-f][1,2,4]triazin-4-amine] | 6.30 |
| CCCCCOc1nc(N)c2ncc(Cc3cnc(N4CCNCC4)c(C)c3)n2n1 [Compound B23, 7-((5-methyl-6-(piperazin-1-yl)pyridin-3-yl)methyl)-2-(pentyloxy)imidazo[2,1-f][1,2,4]triazin-4-amine] | 6.31 |
| CCCCOc1nc(N)c2ncc(Cc3cnc(N4CCN(C(=O)CN)CC4)c(C)c3)n2n1 [Compound B24, 2-amino-1-(4-(5-((4-amino-2-butoxyimidazo[2,1-f][1,2,4]triazin-7-yl)methyl)-3-methylpyridin-2-yl)piperazin-1-yl)ethan-1-one] | 6.68 |
| Cc1cc(Cc2cnc3c(N)nc(OCCOc4ccccc4)nn23)cnc1N1CCNCC1 [Compound B25, 7-((5-methyl-6-(piperazin-1-yl)pyridin-3-yl)methyl)-2-(2-phenoxyethoxy)imidazo[2,1-f][1,2,4]triazin-4-amine] | < 5.00 |
| CCCCOc1nc(N)c2ncc(Cc3ccc(N4CCNCC4)c(OCC)c3)n2n1 [Compound B26, 2-butoxy-7-(3-ethoxy-4-(piperazin-1-yl)benzyl)imidazo[2,1-f][1,2,4]triazin-4-amine] | 6.53 |
| CCCCOc1nc(N)c2ncc(Cc3ccc(N4CCNCC4)c(OC(F)(F)F)c3)n2n1 [Compound B27, 2-butoxy-7-(4-(piperazin-1-yl)-3-(trifluoromethoxy)benzyl)imidazo[2,1-f][1,2,4]triazin-4-amine] | 6.01 |
| Cc1cc(Cc2cnc3c(N)nc(O)nn23)cnc1N1CCNCC1 [Compound B29, 4-amino-7-((5-methyl-6-(piperazin-1-yl)pyridin-3-yl)methyl)imidazo[2,1-f][1,2,4]triazin-2-ol] | < 5.00 |
| Cc1cc(Cc2cnc3c(N)nc(OCCc4ccccc4)nn23)cnc1N1CCNCC1 [Compound B30, 7-((5-methyl-6-(piperazin-1-yl)pyridin-3-yl)methyl)-2-phenethoxyimidazo[2,1-f][1,2,4]triazin-4-amine] | < 5.00 |
| Cc1cc(Cc2cnc3c(N)nc(OCCCc4ccccc4)nn23)cnc1N1CCNCC1 [Compound B31, 7-((5-methyl-6-(piperazin-1-yl)pyridin-3-yl)methyl)-2-(3-phenylpropoxy)imidazo[2,1-f][1,2,4]triazin-4-amine] | < 5.00 |
| CCCCOc1nc(N)c2ncc(Cc3cnc(N4CCN(C(=O)CNC)CC4)c(C)c3)n2n1 [Compound B32, 1-(4-(5-((4-amino-2-butoxyimidazo[2,1-f][1,2,4]triazin-7-yl)methyl)-3-methylpyridin-2-yl)piperazin-1-yl)-2-(methylamino)ethan-1-one] | 7.18 |
| CCCCOc1nc(N)c2ncc(Cc3cc(C)c(N4CCNCC4)cn3)n2n1 [Compound B33, 2-butoxy-7-((4-methyl-5-(piperazin-1-yl)pyridin-2-yl)methyl)imidazo[2,1-f][1,2,4]triazin-4-amine] | 6.66 |
| CCCCOc1nc(N)c2ncc(Cc3cnc(N4CCCCC4)c(C)c3)n2n1 [Compound B34, 2-butoxy-7-((5-methyl-6-(piperidin-1-yl)pyridin-3-yl)methyl)imidazo[2,1-f][1,2,4]triazin-4-amine] | < 5.00 |
| CCCCOc1nc(N)c2ncc(Cc3cnc(N4CCCCCC4)c(C)c3)n2n1 [Compound B35, 7-((6-(azepan-1-yl)-5-methylpyridin-3-yl)methyl)-2-butoxyimidazo[2,1-f][1,2,4]triazin-4-amine] | < 5.00 |
| CCCCOc1nc(N)c2ncc(Cc3ccc(N4CCNCC4)c(C)c3)n2n1 [Compound B36, 2-butoxy-7-(3-methyl-4-(piperazin-1-yl)benzyl)imidazo[2,1-f][1,2,4]triazin-4-amine] | 6.74 |
| CCCCOc1nc(N)c2ncc(Cc3cnc(N4CCN(C(=O)CCN(C)C)CC4)c(C)c3)n2n1 [Compound B37, 1-(4-(5-((4-amino-2-butoxyimidazo[2,1-f][1,2,4]triazin-7-yl)methyl)-3-methylpyridin-2-yl)piperazin-1-yl)-3-(dimethylamino)propan-1-one] | 6.83 |
| CCCCOc1nc(N)c2ncc(Cc3cnc(N4CC5CCCCC5C4)c(C)c3)n2n1 (stereo not shown) [Compound B38, 2-butoxy-7-((5-methyl-6-(octahydro-2H-isoindol-2-yl)pyridin-3-yl)methyl)imidazo[2,1-f][1,2,4]triazin-4-amine] | < 5.00 |
| CCCCOc1nc(N)c2ncc(Cc3cnc(N4CCCNCC4)c(C)c3)n2n1 [Compound B39, 7-((6-(1,4-diazepan-1-yl)-5-methylpyridin-3-yl)methyl)-2-butoxyimidazo[2,1-f][1,2,4]triazin-4-amine] | 6.33 |
| CCCCOc1nc(N)c2ncc(Cc3cnc(N4CCN(C(=O)CN5CCNCC5)CC4)c(C)c3)n2n1 [Compound B40, 1-(4-(5-((4-amino-2-butoxyimidazo[2,1-f][1,2,4]triazin-7-yl)methyl)-3-methylpyridin-2-yl)piperazin-1-yl)-2-(piperazin-1-yl)ethan-1-one] | 6.04 |
| CCCCOc1nc(N)c2ncc(Cc3cnc(N4CCN(C(=O)C5CNCCN5)CC4)c(C)c3)n2n1 (stereo not shown) [Compound B41, (4-(5-((4-amino-2-butoxyimidazo[2,1-f][1,2,4]triazin-7-yl)methyl)-3-methylpyridin-2-yl)piperazin-1-yl)(piperazin-2-yl)methanone] | 6.22 |
| Cc1cc(Cc2cnc3c(N)nc(OCCn4ccnc4)nn23)cnc1N1CCNCC1 [Compound B42, 2-(2-(1H-imidazol-1-yl)ethoxy)-7-((5-methyl-6-(piperazin-1-yl)pyridin-3-yl)methyl)imidazo[2,1-f][1,2,4]triazin-4-amine] | < 5.00 |
| CCCCCCCCOc1nc(N)c2ncc(Cc3cnc(N4CCNCC4)c(C)c3)n2n1 [Compound B43, 7-((5-methyl-6-(piperazin-1-yl)pyridin-3-yl)methyl)-2-(octyloxy)imidazo[2,1-f][1,2,4]triazin-4-amine] | < 5.00 |
| C=CC(=O)N1CCN(c2ncc(Cc3cnc4c(N)nc(OCCCC)nn34)cc2C)CC1 [Compound B44, 1-(4-(5-((4-amino-2-butoxyimidazo[2,1-f][1,2,4]triazin-7-yl)methyl)-3-methylpyridin-2-yl)piperazin-1-yl)prop-2-en-1-one] | 5.18 |
| CCCCOc1nc(N)c2ncc(Cc3ccc(N4CCNCC4)c(OC)c3)n2n1 [Compound B45, 2-butoxy-7-(3-methoxy-4-(piperazin-1-yl)benzyl)imidazo[2,1-f][1,2,4]triazin-4-amine] | 6.38 |
| CCCCOc1nc(N)c2ncc(Cc3ccc(N4CCNCC4)c(OC(C)C)c3)n2n1 [Compound B46, 2-butoxy-7-(3-isopropoxy-4-(piperazin-1-yl)benzyl)imidazo[2,1-f][1,2,4]triazin-4-amine] | 6.02 |
| CCCCOc1nc(N)c2ncc(Cc3cc(C)c(C4CCNCC4)cn3)n2n1 [Compound B47, 2-butoxy-7-((4-methyl-5-(piperidin-4-yl)pyridin-2-yl)methyl)imidazo[2,1-f][1,2,4]triazin-4-amine] | 6.34 |
| CCCCOc1nc(N)c2ncc(Cc3cnc(N4CCNCC4)cc3C)n2n1 [Compound B48, 2-butoxy-7-((4-methyl-6-(piperazin-1-yl)pyridin-3-yl)methyl)imidazo[2,1-f][1,2,4]triazin-4-amine] | 5.32 |
